The source of these data is patent publication US8808715B1, “Methods and compositions for modulating keratinocyte function” (Georgia Regents Research Institute, Inc, priority 2004, dated 2014).

In test [1] the test system is PLD. In words: PLD activity (radiolabeled phosphatidylethanol formation in [3H]oleate-prelabeled keratinocytes). In kind it is cell-based, mouse. The following applies: 100 nM PMA, 30 minutes, 0.5% ethanol; p<0.02. The procedure:
Near-confluent keratinocytes were incubated without radiolabel (for phosphatidylglycerol production) or pre-labeled with 2.5 μCi/mL [^3H]oleate (for phosphatidylethanol formation) for 20-24 hours. The cells were then stimulated for 30 minutes with vehicle (0.05-0.1% DMSO; Con) or 100 nM PMA in the presence of [^3H]glycerol (for phosphatidylglycerol production), or in the presence of 0.5% ethanol (for phosphatidylethanol formation). Reactions were terminated by the addition of 0.2% SDS (±5 mM EDTA) and radiolabeled phosphatidylglycerol (PG), or phosphatidylethanol (PEt) was extracted, separated by thin-layer chromatography and quantified. Values are expressed as -fold over control and represent the means±SEM of three separate experiments performed in duplicate or triplicate; *p<0.02 versus the appropriate control by an unpaired Student's t-test.
For the PLD assay cultured primary keratinocytes were labeled for 20-24 hours with 2.5 μCi/ml [^3H] oleic acid. The cells were then exposed to vehicle or 100 nM PMA in the presence of 0.5% ethanol for 30 minutes. […] Reactions were terminated and the radiolabeled phosphatidylalcohol extracted, separated by thin-layer chromatography and quantified as described by Bollag (1998), referenced above.

The subject of test [2] is primary epidermal keratinocytes. In words: Radiolabeled phosphatidylglycerol formation in intact keratinocytes. The following applies: 100 nM PMA, 30 minutes with [3H]glycerol; p<0.01. In kind it is cell-based, mouse. The protocol: Primary epidermal keratinocytes were prepared from 1-3-day old neonatal ICR mice after trypsin flotation of the skin and mechanical separation of the epidermis from the dermis. The epidermal cells were released by scraping, collected by centrifugation and plated in 6-well dishes in a medium consisting of MEM containing 25 μM calcium, 2% dialyzed fetal bovine serum, 2 mM glutamine, 5 ng/mL EGF, ITS (6.25 μg/mL insulin+6.25 μg/mL transferrin+6.25 ng/mL selenious acid+5.35 μg/mL linoleic acid+1.25% bovine serum albumin), 100 U/mL penicillin, 100 μg/mL streptomycin and 0.25 μg/mL fungizone. After an overnight incubation, the cells were refed with serum-free keratinocyte medium (SFKM), in which 2% dialyzed fetal bovine serum was replaced with 90 μg/mL bovine pituitary extract. Cells were refed with fresh medium every 1-3 days.
For the PLD assay cultured primary keratinocytes were labeled for 20-24 hours with 2.5 μCi/ml [^3H] oleic acid. The cells were then exposed to vehicle or 100 nM PMA in the presence of 0.5% ethanol for 30 minutes. To measure the formation of radiolabeled phosphatidylglycerol, cells were treated for 24 hours with SFKM containing vehicle, 250 nM 1,25-dihydroxyvitamin D3 or 125 μM calcium and then labeled for an additional 30 minutes with 1-2.5 μCi/mL [^3H] or 0.4-0.5 μCi/mL [^14C]glycerol. For experiments investigating the extracellular calcium dependence of PG formation, cells were incubated for 24 hours in SFKM containing various calcium concentrations prior to the addition of 5 μCi/mL [^3H]glycerol for 30 minutes. In some cases, cells were stimulated with 25 μM calcium (control)—or 125 μM calcium-containing SFKM for 24 hours prior to the addition of [^14C]glycerol in the presence and absence of 1% ethanol. To measure phosphatidylglycerol formation in response to PMA, unlabeled cells were stimulated with 100 nM PMA in the presence of radiolabeled glycerol, as above. Reactions were terminated and the radiolabeled phosphatidylalcohol extracted, separated by thin-layer chromatography and quantified as described by Bollag (1998), referenced above.

In test [3] the test system is primary keratinocytes. In words: [3H]Glycerol uptake. In kind it is cell-based, mouse. The following applies: 30 minutes pretreatment with 100 nM PMA, then [3H]glycerol 5 minutes. The procedure:
Confluent primary keratinocytes were incubated for 30, 60, 90, 120, 300 or 600 seconds with SFKM containing 20 mM HEPES (for additional pH buffering), 1 μCi/mL [^3H]glycerol and 0.1% DMSO (control) or 100 nM PMA. Reactions were terminated by washing three times with ice-cold phosphate-buffered saline lacking divalent cations. The cells were subsequently solubilized in 0.3 M NaOH and aliquots of this extract subjected to liquid scintillation counting. Counts obtained from duplicate samples at each time point were averaged and graphed, and a linear equation was determined for each condition. Correlation coefficients obtained were typically 0.99 or greater (mean correlation coefficient for control was 0.992±0.002 and for PMA, 0.994±0.001). Slopes obtained from multiple experiments were averaged and analyzed statistically for significant differences between conditions.
The linearity of glycerol uptake determined above allowed measurement of uptake at a single time point to determine the effects of other treatments on this process. Thus, confluent keratinocytes were preincubated for 30 minutes with 0.1% DMSO (control) or 100 nM PMA prior to measuring [^3H]glycerol uptake as above but at 5 minutes only. Similarly, near-confluent primary keratinocytes were incubated for 24 hours with SFKM containing various calcium concentrations prior to measurement of radiolabeled glycerol uptake for 5 minutes.
Near-confluent keratinocyte cultures were incubated for 24 hours in SFKM (25 μM calcium) or SFKM containing 125 μM calcium (125 μM Ca^2+-SFKM) and the glycerol uptake assay performed as previously described in Zheng & Bollag (2003). Briefly, cells were incubated with SFKM containing 20 mM HEPES (for additional pH buffering) and 1 μCi/mL [^3H] glycerol for 5 minutes, since it has previously been shown that this time point is in the linear range of [^3H]glycerol uptake (Zheng & Bollag (2003). Reactions were terminated by rapidly washing three times with ice-cold phosphate-buffered saline lacking divalent cations (PBS-). Cells were then solubilized in 0.3 M NaOH and [^3H]glycerol uptake quantified by liquid scintillation spectroscopy.

Test [4] deals with ICR CD1 mice. The test can be described thus: Wound healing of full-thickness skin punch biopsies. The following applies: topical; 2M glycerol in water, or 100 μg/mL phosphatidylglycerol liposomes in PBS-. In kind it is in vivo, mouse. The text has this: This example presents recent data on the effects of glycerol and phosphatidylglycerol treatment on wound healing obtained in ICR CD1 mice. Two full-thickness skin punch biopsies of˜4 mm were made on the backs of a total of sixteen mice. […] The rate of wound healing was then followed over four days by digital photography and computer image analysis.

For test [5], the system named is rapidly dividing keratinocytes. The test can be described thus: Assay of DNA synthesis ([3H]thymidine incorporation) in rapidly dividing keratinocytes. In kind it is cell-based. The following applies: 24 hours. The protocol: Keratinocytes were prepared from ICR CD-I outbred mice in accordance with a protocol approved by the Institutional Animal Care and Use Committee. Briefly, the skins were harvested and incubated overnight in 0.25% trypsin at 4° C. The epidermis and dermis were separated and basal keratinocytes scraped from the underside of the epidermis. The cells were collected by centrifugation and incubated overnight in an atmosphere of 95% air/5% carbon dioxide at 37° C. in plating medium as described in Dodd M E, Ristich V L, Ray S, Lober R M, Bollag W B (2005) Regulation of protein kinase D during differentiation and proliferation of primary mouse keratinocytes. J Invest Dermatol 125:294-306, incorporated herein by reference. The plating medium was replaced with serum-free keratinocyte medium (SFKM) also as in Dodd, et al., and the cells were refed every 1-2 days with fresh medium until use.
[^3H]Thymidine incorporation into DNA was determined as a measure of DNA synthesis as previously described by Griner, et al., above. Near-confluent keratinocyte cultures were incubated for 24 hours in SFKM containing the indicated additions. PG was added in the form of liposomes prepared by bath sonication of dried PG in SFKM to make a stock solution of 2 mg/mL. [^3H]Thymidine at a final concentration of 1 μCi/mL was then added to the cells for an additional 1-hour incubation. Reactions were terminated by washing with PBS- and macromolecules precipitated with ice-cold 5% trichloroacetic acid. Cells were solubilized in 0.3 M NaOH and the radioactivity incorporated into DNA quantified by liquid scintillation spectroscopy.
[^3H]Thymidine incorporation was used as a measure of DNA synthesis and was performed as described in Example 2. Liposomes containing PG and functional derivatives thereof were prepared by bath sonication as described in Example 2, with the exception that different concentrations of material were employed.
(In general: Uptake of a labelled nucleoside into DNA is a usual measure of proliferation.)

Test [6] deals with keratin 5 promoter. In words: Co-transfection analysis, keratin 5 promoter-luciferase reporter. The following applies: glycerol 0.2%, 24 hours. In kind it is cell-based, mouse. The procedure:
FIGS. 15A-B illustrate that glycerol, but not xylitol or sorbitol, inhibits DNA synthesis and enhances the inhibitory effect of an elevated extracellular Ca^2+ concentration. (A) Near-confluent keratinocytes were incubated for 24 hours with 0.02 or 0.1% glycerol and DNA synthesis measured as the incorporation of [^3H] thymidine incorporation into DNA. (B) Near-confluent keratinocytes were incubated for 24 hours with the indicated concentrations of glycerol (G, squares) or equivalent concentrations of xylitol (X, circles) in SFKM containing 25 μM (control; open symbols) or 125 μM Ca^2+ (Ca^2+; closed symbols). (C) Near-confluent keratinocytes were incubated for 24 hours with the indicated concentrations of glycerol (G) or equivalent concentrations of sorbitol (S, triangles) in SFKM containing 25 μM (control; open symbols) or 125 μM Ca^2+ (Ca^2+; closed symbols) for 24 hours. [^3H]Thymidine incorporation into DNA was then determined. Values represent the means±SEM of 4 to 5 separate experiments performed in duplicate; *p<0.05, **p<0.01 versus the control value, †p<0.05 versus the value in the presence of Ca^2+ alone. […] After 24 hours cells were refed with medium containing no addition (control) or 0.2% glycerol for an additional 24 hours. Luciferase activity was then measured using a Dual Luciferase kit as directed by the manufacturer. […] The blots were quantified using the Kodak molecular imaging software. […]
The keratin 5 and keratin 10 promoter-luciferase constructs were provided by of Dr. Bogi Andersen (University of California, Irvine, Calif.); the involucrin promoter-luciferase construct was provided by Dr. Daniel Bikle (University of California, San Francisco, Calif.). […] Luciferase activity was then measured using the Dual Luciferase Reporter Assay kit (Promega, Madison, Wis.) as directed by the manufacturer.

For test [7], the system named is AQP3 null mutant mouse. The following applies: studies of the AQP3 null mutant mouse; cited from earlier work.
The target of test [8] is T1, PLD-2 (Homo sapiens, UniProt O14939).
T1 construct: purchased Onyx Pharmaceuticals; host or cells: Sf9 insect cells (membrane preparation)
T1 sequence (O14939 whole entry, species assumed): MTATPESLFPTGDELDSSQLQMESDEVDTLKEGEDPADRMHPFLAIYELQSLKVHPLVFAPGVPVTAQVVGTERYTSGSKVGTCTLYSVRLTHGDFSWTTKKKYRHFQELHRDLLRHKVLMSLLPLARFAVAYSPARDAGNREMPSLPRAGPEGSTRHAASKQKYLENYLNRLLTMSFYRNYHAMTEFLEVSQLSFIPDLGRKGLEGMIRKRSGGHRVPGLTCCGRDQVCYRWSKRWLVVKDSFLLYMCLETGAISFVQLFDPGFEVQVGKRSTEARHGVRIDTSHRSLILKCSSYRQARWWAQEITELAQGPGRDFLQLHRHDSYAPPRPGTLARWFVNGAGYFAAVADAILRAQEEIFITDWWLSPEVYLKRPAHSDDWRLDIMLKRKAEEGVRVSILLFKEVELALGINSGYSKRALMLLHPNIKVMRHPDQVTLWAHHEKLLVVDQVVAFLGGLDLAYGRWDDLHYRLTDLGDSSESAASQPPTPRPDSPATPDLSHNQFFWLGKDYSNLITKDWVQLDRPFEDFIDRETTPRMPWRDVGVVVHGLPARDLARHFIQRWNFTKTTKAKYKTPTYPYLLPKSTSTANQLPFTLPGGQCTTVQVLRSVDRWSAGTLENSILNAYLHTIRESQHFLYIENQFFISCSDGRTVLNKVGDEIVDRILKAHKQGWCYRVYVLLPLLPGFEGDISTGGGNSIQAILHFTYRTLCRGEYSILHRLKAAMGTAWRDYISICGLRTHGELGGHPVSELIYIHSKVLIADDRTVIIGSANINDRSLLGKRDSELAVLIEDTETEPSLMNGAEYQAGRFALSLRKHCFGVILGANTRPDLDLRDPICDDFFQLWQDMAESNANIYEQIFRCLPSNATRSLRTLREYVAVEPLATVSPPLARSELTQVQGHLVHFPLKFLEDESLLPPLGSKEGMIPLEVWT
The test can be described thus: In vitro assay of phosphatidylglycerol formation by PLD-2 (transphosphatidylation). In kind it is biochemical. The procedure: FIGS. 5 A and B illustrate that glycerol serves as a substrate for phospholipase D in the transphosphatidylation reaction in vitro. Liposomes were prepared from [^3H-dipalmitoyl]phosphatidylcholine, phosphatidylethanolamine, phosphatidylcholine and phosphatidylinositol 4,5-bisphosphate by sonication. Glycerol at the indicated concentrations in the absence (A) or presence of 1% ethanol (B) was added to the reaction mix. Reactions were initiated by the addition of Sf9 PLD2-overexpressing membranes (1 μg protein), incubated for 30 minutes at 37° C. and terminated by the addition of 0.2% SDS (±5 mM EDTA). Lipids were extracted, separated, and quantified. The figure is representative of at least two additional experiments. There was some variability in the absolute levels of phosphatidic acid (PA), PG and phosphatidylethanol (PEt) formed, likely due to variations in the extent of formation of multilamellar vesicles during sonication.
PLD-2 activity was measured in vitro with [^3H-palmitoyl]phosphatidylcholine as substrate. […] Lipids were extracted according to the method of Bligh and Dyer and radiolabeled phospholipids separated and quantified, as described in W. B. Bollag, “Measurement of phospholipase D activity, Methods” Mol. Biol. 105 (1998) 151-160, incorporated herein by reference.

Take `CCCCCCCCCCCCCC(=O)O[C@@H]1[C@@H](C)[C@@]2(O)[C@@H](C=C(CO)C[C@]3(O)C(=O)C(C)=C[C@@H]23)[C@@H]2C(C)(C)[C@]12OC(C)=O` [PMA, Phorbol 12-myristate 13-acetate]: in test [1], the “PLD activity (radiolabeled phosphatidylethanol formation)” value is recorded as “large increase in PLD activity”. In addition, the PG production result in test [2] is “decrease in PG production”. Moreover, the glycerol uptake entry in test [3] was “decrease in glycerol uptake”.
For `OCC(O)CO` [glycerol], the “rate of wound healing (percentage on day 4 relative to day 1)” value in test [4] is recorded as “improved the rate of wound healing”. Moreover, the “effect on DNA synthesis in presence of 125 μM Ca2+” value in test [5] (125 μM Ca2+ medium) is given as “enhanced the inhibitory effect of 125 μM Ca^2+”. Moreover, the “effect on DNA synthesis ([3H]thymidine incorporation into DNA)” value in test [5] (control (25 μM Ca2+) medium) is “inhibited DNA synthesis”. In test [5] (0.02% = 2.73 mM), the “lowest concentration that significantly inhibited DNA synthesis” value was found to be 0.02%. Further, the “reduction in keratin 5 promoter activity” value in test [6] (empty vector) is reported as around 9%; in test [6] (keratinocytes transfected with AQP3), around 47%. In addition, the “correction of the epidermal phenotype of the knockout model” value in test [7] is “could correct the epidermal phenotype”. The “formation of PG from phosphatidylcholine (glycerol as substrate for transphosphatidylation)” value in test [8] (PLD2-overexpressing Sf9 membranes, 30 minutes at 37° C.) was “PLD2 catalyzed the formation of PG from phosphatidylcholine in the presence of glycerol”. The “competition with ethanol in the transphosphatidylation reaction” value in test [8] (in presence of 1% ethanol) is reported as “could compete with the primary alcohol ethanol to generate PG in place of phosphatidylethanol”.
